Data: US11807625B2, “Capsid inhibitors for the prevention of HIV” (Gilead Sciences, Inc., priority 2019, dated 2023)

Assay: PK of compound of Formula (Ia) after single subcutaneous dose of solution formulations in Wistar Han rats
Assay type: in vivo
Settings: male, Wistar Han, rat, plasma, sc, 50 mg/kg, SC 50 mg/kg
Method: Formulations containing the compound of Formula (Ia), or a pharmaceutically acceptable salt thereof, were prepared as solutions and optionally administered subcutaneously or intramuscularly to rats, rabbits, and/or dogs.
(§1) A solution of about 400 mg/mL of the compound of Formula (Ia) having 19.14 w/w % water, 40.66 w/w % PEG 300, 35.20 w/w % of a sodium salt of a compound of Formula (Ia), and 5.00% ethanol was prepared. The solution was administered subcutaneously to male Wistar Han rats at a dose level of about 50 mg/kg and dose volume of 0.125 mL/kg and the pharmacokinetic (PK) profile was determined.
as §1, with “500” for “400”, “16.64” for “19.14”, “35.36” for “40.66”, “43.00” for “35.20”, “0.1” for “0.125”
(§2) A solution of about 400 mg/mL of the compound of Formula (Ia) having 17.00 w/w % water, 36.40 w/w % PEG 300, 35.20 w/w % of a sodium salt of a compound of Formula (Ia), 5.00 w/w % ethanol, and 6.40 w/w % poloxamer 188 was prepared. The solution was administered subcutaneously to male beagle dogs at a dose level of about 12 mg/kg and male Wistar Han rats at a dose level of about 50 mg/kg. The pharmacokinetic profiles were determined, and the results for dogs are summarized in Table and Table, while the results for rats are summarized in Table and Table below.
as §2, with “500” for “400”, “14.06” for “17.00”, “30.12” for “36.40”
A solution of about 300 mg/mL of the compound of Formula (Ia) having 23.33 w/w % water, 48.99 w/w % PEG 300, 26.47 w/w % of a sodium salt of a compound of Formula (Ia), and 1.21 w/w % poloxamer 188 was prepared. The solution was administered subcutaneously to male beagle dogs at a dose level of about 6 mg/kg and male Wistar Han rats at a dose level of about 50 mg/kg. The pharmacokinetic profiles were determined, and the results for dogs are summarized in Table and Table, while the results for rats are summarized in Table and Table below.
as §2, with “18.80” for “17.00”, “40.25” for “36.40”, “34.38” for “35.20”, “1.57” for “6.40”
as §2, with “500” for “400”, “16.29” for “17.00”, “34.88” for “36.40”, “41.92” for “35.20”, “1.91” for “6.40”
A solution of about 400 mg/mL of the compound of Formula (Ia) having 20.90 w/w % water, 44.72 w/w % PEG 300, and 34.38 w/w % of a sodium salt of a compound of Formula (Ia) was prepared. […]

[1] = individual rats, solution T, 400 mg/mL
[2] = individual rats, solution U, 500 mg/mL
[3] = individual rats, solution V, 300 mg/mL
[4] = mean, n = 3 rats, solution R, 400 mg/mL
[5] = mean, n = 3 rats, solution S, 500 mg/mL
[6] = mean, n = 3 rats, solution V, 300 mg/mL
[7] = mean, n = 5 rats, solution T, 400 mg/mL
[8] = mean, n = 5 rats, solution U, 500 mg/mL
[9] = individual rats, solution R, 400 mg/mL
[10] = individual rats, solution S, 500 mg/mL

- concentration at 8 h [1]: 294 nM
- concentration at 8 h [2]: 176 nM
- concentration at 8 h [3]: 170 nM
- concentration at 8 h [4]: 112 nM
- concentration at 8 h [5]: 100 nM
- concentration at 8 h [6]: 155 nM
- concentration at 8 h [7]: 211 nM
- concentration at 8 h [8]: 142 nM
- concentration at 24 h [9]: 167 nM
- concentration at 24 h [10]: 111 nM
- concentration at 24 h [2]: 300 nM
- concentration at 24 h [3]: 222 nM
- concentration at 24 h [4]: 162 nM
- concentration at 24 h [5]: 127 nM
- concentration at 24 h [6]: 193 nM
- concentration at 24 h [7]: 339 nM
- concentration at 24 h [8]: 224 nM
- concentration at 48 h [9]: 184 nM
- concentration at 48 h [10]: 92.6 nM
- concentration at 48 h [3]: 265 nM
- concentration at 48 h [4]: 151 nM
- concentration at 48 h [5]: 123 nM
- concentration at 48 h [6]: 197 nM
- concentration at 48 h [7]: 307 nM
- concentration at 48 h [8]: 211 nM
- concentration at 72 h [9]: 168 nM
- concentration at 72 h [10]: 95.8 nM
- concentration at 72 h [1]: 353 nM
- concentration at 72 h [3]: 187 nM
- concentration at 72 h [4]: 148 nM
- concentration at 72 h [5]: 127 nM
- concentration at 72 h [6]: 148 nM
- concentration at 72 h [7]: 247 nM
- concentration at 72 h [8]: 197 nM
- concentration at 96 h [9]: 181 nM
- concentration at 96 h [10]: 105 nM
- concentration at 96 h [2]: 230 nM
- concentration at 96 h [3]: 164 nM
- concentration at 96 h [4]: 152 nM
- concentration at 96 h [5]: 120 nM
- concentration at 96 h [6]: 136 nM
- concentration at 96 h [7]: 240 nM
- concentration at 96 h [8]: 167 nM
- concentration at 168 h [9]: 191 nM
- concentration at 168 h [10]: 123 nM
- concentration at 168 h [3]: 100 nM
- concentration at 168 h [4]: 160 nM
- concentration at 168 h [5]: 109 nM
- concentration at 168 h [6]: 104 nM
- concentration at 168 h [7]: 173 nM
- concentration at 168 h [8]: 154 nM
- concentration at 336 h [9]: 251 nM
- concentration at 336 h [3]: 194 nM
- concentration at 336 h [4]: 261 nM
- concentration at 336 h [5]: 183 nM
- concentration at 336 h [6]: 201 nM
- concentration at 336 h [7]: 254 nM
- concentration at 336 h [8]: 244 nM
- concentration at 504 h [9]: 348 nM
- concentration at 504 h [10]: 415 nM
- concentration at 504 h [3]: 241 nM
- concentration at 504 h [4]: 353 nM
- concentration at 504 h [5]: 287 nM
- concentration at 504 h [6]: 265 nM
- concentration at 504 h [7]: 301 nM
- concentration at 504 h [8]: 303 nM
- concentration at 672 h [9]: 290 nM
- concentration at 672 h [10]: 407 nM
- concentration at 672 h [3]: 274 nM
SMILES: CC(C)(C#Cc1ccc(-c2ccc(Cl)c3c(NS(C)(=O)=O)nn(CC(F)(F)F)c23)c([C@H](Cc2cc(F)cc(F)c2)NC(=O)Cn2nc(C(F)(F)F)c3c2C(F)(F)[C@@H]2C[C@H]32)n1)S(C)(=O)=O [compound of Formula (Ia)]
